According to the NIST ThermoML archive (doi:10.1021/acs.jced.8b00814):

Settings: 101.33 kPa, Liquid, Vibrating tube method

O [water]
Settings | mass density [kg/m3]
283.15 K | 999.66
308.15 K | 994.11
313.15 K | 992.32
318.15 K | 990.34
323.15 K | 988.18
328.15 K | 985.87
333.15 K | 983.4
338.15 K | 980.78
343.15 K | 978.02
348.15 K | 975.13
353.15 K | 972.11
358.15 K | 968.95
363.15 K | 965.71
